Test system: not listed separately
Assay: logP of the compounds of table 1
Assay type: physicochemical
Settings: not given

Compared with `C#CCCOC(=O)Nc1cccc(CON=C(C(=N)N(C)N)c2ccccc2)n1` [compound 308], `C#CCCOC(=O)Nc1cccc(CON=C(C(=N)SC)c2ccccc2)n1` [compound 309] is higher in logP: 1.77 for the first, 3.02 for the second.

Going from `CCON(C)C(=O)C(=NOCc1cccc(NC(=O)OC(C)(C)C)n1)c1ccccc1` [compound 201] to `C#CCCCCOC(=O)Nc1cccc(CON=C(C(=O)N(C)OCC)c2ccccc2)n1` [compound 202], the logP rises from 2.38 to 3.71.

`CCON(C)C(=O)C(=NOCc1cccc(NC(=O)C2COc3ccccc3O2)n1)c1ccccc1` (centres unmarked) [compound 203] and `CCON(C)C(=O)C(=NOCc1cccc(NC(=O)C(C)Oc2ccccc2)n1)c1ccccc1` (centres unmarked) [compound 205] are within 0.2 log units of each other in logP: 3.83 for the first, 3.94 for the second.

Compared with `CCON(C)C(=O)C(=NOCc1csc(NC(=O)OCCOc2ccccc2)n1)c1ccccc1` [compound 209], `CCON(C)C(=O)C(=NOCc1cccc(NC(=O)OCCOc2ccccc2)n1)c1ccccc1` [compound 207] is higher in logP: 3.62 for the first, 3.89 for the second.

`CCON(C)C(=O)C(=NOCc1cccc(NC(=O)Cc2ccc(OC)cc2)n1)c1ccccc1` [compound 206] and `CCON(C)C(=O)C(=NOCc1csc(NC(=O)Cc2ccc(OC)cc2)n1)c1ccccc1` [compound 210] are within 0.2 log units of each other in logP: 3.37 for the first, 3.23 for the second.

Going from `CCON(C)C(=O)C(=NOCc1csc(N)n1)c1ccccc1` [compound 208] to `C#CCCCCOC(=O)Nc1nc(CON=C(C(=O)N(C)OCC)c2ccccc2)cs1` [compound 211], the logP rises from 1.35 to 3.44.

Compared with `C#CCCOC(=O)Nc1cccc(CON=C(C(N)=S)c2ccccc2)n1` [compound 310], `CCON(C)C(=O)C(=NOCc1cccc(NC(=O)c2ccc(Cl)cc2)n1)c1ccccc1` [compound 204] is higher in logP: 2.75 for the first, 4.01 for the second.

Test system: Phytophthora infestans
Assay: not given
Assay type: in vivo, Phytophthora infestans on tomato
Settings: preventive spray on young tomato plants, 500 ppm of active ingredient, inoculated one day after treatment, evaluated 7 days after inoculation; 0% = untreated control, 100% = no disease

First: CCCCCOC(=O)Nc1cccc(CON=C(C(=O)N(C)C)c2ccccc2)n1 [Example 99]
Second: COc1ccc(CC(=O)Nc2cccc(CON=C(C(=O)N(C)C)c3ccccc3)n2)cc1 [Example 112]
The Efficacy of the first is lower: 95% for the first, 100% for the second.

First: CC(Oc1ccccc1)C(=O)Nc1cccc(CON=C(C(=O)N(C)C)c2ccccc2)n1 (centres unmarked) [Example 111]
Second: CC(Oc1ccccc1)C(=O)Nc1nc(CON=C(C(=O)N(C)C)c2ccccc2)cs1 (centres unmarked) [Example 130]
The Efficacy of the first is lower: 92% for the first, 100% for the second.

Test system: not listed separately
Assay: logP of the compounds of table 1
Assay type: physicochemical
Settings: not given
Remark: another data set of the same source

Going from `CNC(=O)C(=NOCc1cccc(NCCC2CCCCC2)n1)c1ccccc1` [compound 82] to `COC(=O)C(=NOCc1cccc(NCCC2CCCCC2)n1)c1ccccc1` [compound 44], the logP rises from 2.23 to 3.04.

`CCCCCOC(=O)Nc1cccc(CON=C(C(=O)NC)c2ccc(OCc3ccccc3)cc2)n1` [compound 64] and `CCCCCOC(=O)Nc1cccc(CON=C(C(=O)NC)c2ccc(Oc3ccccc3)cc2)n1` [compound 65] are within 0.2 log units of each other in logP: 2.65 for the first, 2.64 for the second.

First: CCCCCOC(=O)Nc1cccc(CON=C(C(=O)N(C)C)c2ccccc2)n1 [Example 99]
Second: CCCCCOC(=O)Nc1cccc(CON=C(C(=O)OC)c2ccccc2)n1 [compound 27]
The logP of the first is higher: 3.96 for the first, 3.69 for the second.

First: CC(Oc1ccccc1)C(=O)Nc1cccc(CON=C(C(=O)N(C)C)c2ccccc2)n1 (centres unmarked) [Example 111]
Second: CCN(C)C(=O)C(=NOCc1cccc(NC(=O)C(C)Oc2ccccc2)n1)c1ccccc1 (centres unmarked) [compound 136]
The logP of the first is lower: 3.50 for the first, 3.78 for the second.

Compared with `COc1ccc(CC(=O)Nc2cccc(CON=C(C(=O)N(C)C)c3ccccc3)n2)cc1` [Example 112], `CCN(C)C(=O)C(=NOCc1cccc(NC(=O)Cc2ccc(OC)cc2)n1)c1ccccc1` [compound 137] is higher in logP: 3.00 for the first, 3.23 for the second.

Compared with `COC(=O)C(=NOCc1cccc(NC(=O)C(F)(F)Oc2ccccc2)n1)c1ccccc1` [compound 38], `CNC(=O)C(=NOCc1cccc(NC(=O)C(F)(F)Oc2ccccc2)n1)c1ccccc1` [compound 76] is lower in logP: 4.41 for the first, 3.35 for the second.

Going from `CCN(C)C(=O)C(=NOCc1csc(NC(=O)C2COc3ccccc3O2)n1)c1ccccc1` (centres unmarked) [compound 149] to `CCN(C)C(=O)C(=NOCc1cccc(NC(=O)C2COc3ccccc3O2)n1)c1ccccc1` (centres unmarked) [compound 139], the logP rises from 3.39 to 3.69.

Going from `CCN(C)C(=O)C(=NOCc1csc(N)n1)c1ccccc1` [compound 144] to `C#CCCOC(=O)Nc1nc(CON=C(C(=O)N(C)CC)c2ccccc2)cs1` [compound 152], the logP rises from 1.34 to 2.80.

First: CCN(C)C(=O)C(=NOCc1csc(NC(=O)Cc2ccc(OC)cc2)n1)c1ccccc1 [compound 147]
Second: COc1ccc(CC(=O)Nc2nc(CON=C(C(=O)N(C)C)c3ccccc3)cs2)cc1 [compound 131]
The logP of the first is higher: 3.09 for the first, 2.88 for the second.

Compared with `CN(C)C(=O)C(=NOCc1cccc(NC(=O)c2ccc(Cl)cc2)n1)c1ccccc1` [compound 114], `CCN(C)C(=O)C(=NOCc1cccc(NC(=O)c2ccc(Cl)cc2)n1)c1ccccc1` [compound 140] is higher in logP: 3.57 for the first, 3.85 for the second.

First: CC#CCOC(=O)Nc1cccc(CON=C(C(=O)OC)c2ccccc2)n1 [compound 45]
Second: CC#CCOC(=O)Nc1cccc(CON=C(C(=O)NC)c2ccccc2)n1 [compound 83]
The logP of the first is higher: 3.67 for the first, 2.59 for the second.

Compared with `CN(C)C(=O)C(=NOCc1cccc(NC(=O)c2cccc(F)c2)n1)c1ccccc1` [compound 113], `CNC(=O)C(=NOCc1cccc(NC(=O)c2cccc(F)c2)n1)c1ccccc1` [compound 78] is lower in logP: 3.23 for the first, 2.84 for the second.

Going from `CC(C)(C)OC(=O)Nc1cccc(CON=C(C#N)c2ccccc2)n1` [compound 1] to `CNC(=O)C(=NOCc1cccc(NC(=O)OC(C)(C)C)n1)c1ccccc1` [compound 62], the logP falls from 4.64 to 2.88.

First: C=CCCOC(=O)Nc1cccc(CON=C(C(=O)NC)c2ccccc2)n1 [compound 80]
Second: C=CCCOC(=O)Nc1cccc(CON=C(C(=O)OC)c2ccccc2)n1 [compound 42]
The logP of the first is lower: 2.77 for the first, 3.94 for the second.

Compared with `C#CCCOC(=O)Nc1cccc(CON=C(C(=O)OC)c2ccccc2)n1` [compound 28], `C#CCCOC(=O)Nc1cccc(CON=C(C(=O)N(C)CC)c2ccccc2)n1` [compound 143] is lower in logP: 3.48 for the first, 3.04 for the second.

Compared with `CCN(C)C(=O)C(=NOCc1csc(NC(=O)c2ccc(Cl)cc2)n1)c1ccccc1` [compound 150], `CN(C)C(=O)C(=NOCc1csc(NC(=O)c2ccc(Cl)cc2)n1)c1ccccc1` [compound 132] is lower in logP: 3.69 for the first, 3.41 for the second.

Compared with `CCCCCCOC(=O)Nc1cccc(CON=C(C(=O)OC)c2ccccc2)n1` [compound 46], `CCCCCCOC(=O)Nc1cccc(CON=C(C(=O)NC)c2ccccc2)n1` [compound 84] is lower in logP: 5.14 for the first, 3.48 for the second.

Compared with `CC(Oc1ccccc1)C(=O)Nc1nc(CON=C(C(=O)N(C)C)c2ccccc2)cs1` (centres unmarked) [Example 130], `CCN(C)C(=O)C(=NOCc1csc(NC(=O)C(C)Oc2ccccc2)n1)c1ccccc1` (centres unmarked) [compound 146] is higher in logP: 3.21 for the first, 3.48 for the second.

First: CNC(=O)C(=NOCc1cccc(N)n1)c1ccccc1 [compound 60]
Second: COC(=O)C(=NOCc1cccc(N)n1)c1ccccc1 [compound 25]
The logP of the first is lower: 0.65 for the first, 1.32 for the second.

First: CNC(=O)C(=NOCc1cccc(NC(=O)c2cccs2)n1)c1ccccc1 [compound 81]
Second: COC(=O)C(=NOCc1cccc(NC(=O)c2cccs2)n1)c1ccccc1 [compound 43]
The logP of the first is lower: 2.57 for the first, 3.67 for the second.

Compared with `CN(C)C(=O)C(=NOCc1cccc(N)n1)c1ccccc1` [compound 97], `C=CCCOC(=O)Nc1cccc(CON=C(C(=O)N(C)C)c2ccccc2)n1` [compound 116] is higher in logP: 1.10 for the first, 3.19 for the second.

First: COc1ccc(C(=O)Nc2nc(CON=C(C(=O)N(C)C)c3ccccc3)cs2)cc1 [compound 134]
Second: COc1ccc(OC(=O)Nc2cccc(CON=C(C(=O)N(C)C)c3ccccc3)n2)cc1 [compound 117]
The logP of the first is lower: 2.84 for the first, 3.25 for the second.

`C#CCCCCOC(=O)Nc1cccc(CON=C(C(=O)N(C)CC)c2ccccc2)n1` [compound 138] and `C#CCCCCOC(=O)Nc1nc(CON=C(C(=O)N(C)CC)c2ccccc2)cs1` [compound 148] are within 0.2 log units of each other in logP: 3.35 for the first, 3.29 for the second.

Compared with `CCN(C)C(=O)C(=NOCc1csc(NC(=O)OCCOc2ccccc2)n1)c1ccccc1` [compound 151], `CN(C)C(=O)C(=NOCc1csc(NC(=O)OCCOc2ccccc2)n1)c1ccccc1` [compound 133] is lower in logP: 3.48 for the first, 3.27 for the second.

First: CCN(C)C(=O)C(=NOCc1cccc(NC(=O)OC(C)(C)C)n1)c1ccccc1 [compound 142]
Second: COC(=O)C(=NOCc1cccc(NC(=O)OC(C)(C)C)n1)c1ccccc1 [compound 26]
The logP of the first is lower: 3.72 for the first, 4.20 for the second.

Going from `CNC(=O)C(=NOCc1cccc(NC(=O)Cc2ccc(OC)cc2)n1)c1ccccc1` [compound 77] to `COC(=O)C(=NOCc1cccc(NC(=O)Cc2ccc(OC)cc2)n1)c1ccccc1` [compound 39], the logP rises from 2.66 to 3.69.

Compared with `CN(C)C(=O)C(=NOCc1cccc(NC(=O)OCCOc2ccccc2)n1)c1ccccc1` [compound 115], `CCN(C)C(=O)C(=NOCc1cccc(NC(=O)OCCOc2ccccc2)n1)c1ccccc1` [compound 141] is higher in logP: 3.48 for the first, 3.76 for the second.

Going from `COC(=O)C(=NOCc1cccc(NCCCc2ccccc2)n1)c1ccccc1` [compound 41] to `CNC(=O)C(=NOCc1cccc(NCCCc2ccccc2)n1)c1ccccc1` [compound 79], the logP falls from 2.60 to 1.94.

Going from `C#CCC(C)OC(=O)Nc1nc(CON=C(C(=O)N(C)C)c2ccccc2)cs1` (centres unmarked) [compound 121] to `C#CCC(C)OC(=O)Nc1nc(CON=C(C(=O)N(C)CC)c2ccccc2)cs1` (centres unmarked) [compound 145], the logP rises from 2.84 to 3.09.

First: C#CCC(C)OC(=O)Nc1cccc(CON=C(C(=O)N(C)CC)c2ccccc2)n1 (centres unmarked) [compound 135]
Second: C#CCCOC(=O)Nc1nc(CON=C(C(=O)N(C)C)c2ccccc2)cs1 [compound 120]
The logP of the first is higher: 3.31 for the first, 2.84 for the second.

First: COC(=O)C(=NOCc1cccc(NC(=O)C2COc3ccccc3O2)n1)c1ccccc1 (centres unmarked) [compound 37]
Second: COC(=O)C(=NOCc1cccc(NC(=O)c2cccc(F)c2)n1)c1ccccc1 [compound 40]
The logP of the first is higher: 4.16 for the first, 3.94 for the second.

First: CNC(=O)C(=NOCc1cccc(N)n1)c1ccc(OCc2ccccc2)cc1 [compound 61]
Second: C#CCCCCOC(=O)Nc1nc(CON=C(C(=O)N(C)C)c2ccccc2)cs1 [compound 122]
The logP of the first is lower: 1.17 for the first, 3.06 for the second.

Same assay, conditions: read-out: logP

For `C#CCCOC(=O)Nc1cccc(CON=C(C#N)c2ccccc2)n1` (single isomer, unassigned) [Example 3, but-3-yn-1-yl{6-[({[cyano(phenyl)methylene]amino}oxy)methyl]pyridin-2-yl}carbamate], the logP was 3.67.

— patent US9000012B2 (priority 2009, dated 2015)
